Each structure is given as a SMILES string.

In the case of `O=C1c2c(O)ccc(O)c2C(=O)c2c(NCCN3CCC(O)CC3)ccc(NCCN3CCC(O)CC3)c21`, the melting point was 241 to 244 °C. Compound `O=C(OCc1ccccc1)N1CCC2(CC1)CN(c1ccccc1)C(=O)O2` gave a melting point of 100 to 102 °C. For `O=c1cc(C(F)(F)F)nc(Nc2cc(C(F)(F)F)ccc2C(F)(F)F)n1C1CCCCC1` the value was 154 to 156 °C. `CCOC(=O)COc1cc(C(C)(C)C)c(SC2=C(O)CC(CCc3ccc(O)cc3)(CCc3ccc(O)cc3)OC2=O)cc1C` yielded a melting point of 162 to 163 °C.

Turning to `Cn1ncnc1-n1cc(C(=O)O)c(=O)c2cc(F)c(F)cc21`, the melting point was 254 to 264 °C. For `O=C1Nc2ccccc2Oc2ncccc21` the value was 250 to 253 °C; for `CCCn1nc2c(N)nc3ccccc3c2c1CCNC(=O)c1cccnc1`, 219 to 221 °C; for `CN1CC(=O)Nc2cscc2C1=O`, 263 to 265 °C. `COC[C@H](C1CC1)n1cc(Br)nc(Br)c1=O` came in with a melting point of 98.5 to 100 °C. For `O=C1c2c(O)ccc(O)c2C(=O)c2c(NCCN(CCO)CCO)ccc(NCCN(CCO)CCO)c21` the value was 134 to 136 °C; for `CNC(=O)CCC(=O)c1ccc(OCC2CO2)cc1` (stereo not drawn), 133 to 140 °C; for `Cn1cncc1C(O)(c1ccoc1)c1ccc2nc(Cl)cc(-c3cccc(Cl)c3)c2c1` (stereo not drawn), 246 °C.

Compound `CC(C)COc1ccc(C=CC(=O)O)cc1` displayed a melting point of 161 to 164 °C.

In turn, `COc1nc(C)cnc1NS(=O)(=O)c1ccccc1-c1ccc(CC(C)C)c([N+](=O)[O-])c1` gave a melting point of 114 to 115 °C. Compound `Nc1nsnc1-c1c(Cl)cccc1Cl` had a melting point of 95 to 97 °C.

Compound `O=C(O)c1ncn2c1CN(C(=O)N1CCCC1)c1ccccc1-2` registered a melting point of 197 to 200 °C. In turn, `NS(=O)(=O)c1ccccc1OC(F)(F)C(F)F` yielded a melting point of 117 to 119 °C.

Consider `O=C(c1ccc2nonc2c1)N1CCC(O)CC1`, for which the melting point lay in the range of 132 to 136 °C. As to `CN1CC2CC(=O)CC(C1)N2C`, the melting point lay in the range of 72 to 73 °C. With `CC(C)(C)c1ccc(/C=N/OCCCOc2ccc(C(=O)O)c(NC(=O)c3cc(C(F)(F)F)cc(C(F)(F)F)c3)c2)cc1`, the melting point came out at 158 °C.

Compound `CCCCCc1cc(O)c2c(c1)OC(C)(C)CC2C1=CCN(Cc2ccc3ccccc3c2)CC1` (stereo not drawn) had a melting point of 49 to 51.5 °C. For `O=C(O)CCNC(=S)Nc1ccc2cn[nH]c2c1` the value was 175 °C. For `COc1cccc(OCC(=O)c2cc(OCc3ccccc3)ccc2OC)c1` the value was 76 to 77 °C; for `COc1ccc(CNc2nc(CCC(=O)O)nc3sc4c(c23)CCCC4)cc1Cl`, 135 °C; for `CC(=O)Oc1cc(Cl)ccc1C(=O)NCCO[N+](=O)[O-]`, 75 to 77 °C. In the case of `CN1CCC(C2(O)c3ccccc3C=Cn3ccnc32)CC1` (stereo not drawn), the melting point came to 155 °C. For `COc1cc(C(=O)O)ccc1Cc1c(Cl)n(C)c2ccc(CCNC(=O)N(C)C)cc12` the value was 215 °C; for `CCCCCCCCCCc1ccc(C(=O)O[C@@H]2CC[C@H](NC(=O)[C@H](OC)[C@H](O)[C@@H](O)[C@H](O)/C=C/C(C)(C)C)C(=O)NC2)cc1`, 60 to 64 °C. For `Cn1cccc1-c1nc2cc(N)ccc2o1` the value was 183 to 185 °C. `Cn1nnc(-c2ccc(C=Cc3ccc(-c4nc5ccccc5o4)cc3)cc2)c1C#N` had a melting point of 264 to 266 °C.

`CC(C)(CCC(C)(C)NCc1ccccc1O)NCc1ccccc1O` returned a melting point of 111 to 112 °C. Consider `CC(C)n1nc(-c2sc(C(=O)NC3CC3)nc2-c2ccc(F)cc2)ccc1=O`, for which the melting point is 157 to 158 °C. `CC1(C)Oc2c(c(=O)n(Cc3ccccc3)c3ccccc23)[C@@H](N2CCCC2=O)[C@@H]1O` (relative stereo) displayed a melting point above 260 °C. For `N#Cc1ccc2cc(OCCC(c3ccccc3)(c3ccccc3)c3ccccc3)ccc2c1` the value was 207 to 208 °C; for `CC(=NNC(=N)N)c1cccc(OCc2ccc3ccccc3n2)c1`, 57 to 59 °C.

The compound `O=c1cc(-c2ccncc2)nc2n1CCC(c1ccncc1)N2` (stereo not drawn) yielded a melting point of 268 to 270 °C. For `Cc1cccc(NCCNc2cccc(C)c2C)c1C` the value was 130 to 133 °C. `CCCc1nn(C)c2c(=O)[nH]c(-c3cc(CCCN)ccc3OCC)nc12` came in with a melting point of 115 to 117 °C. For `C=CCS(=O)(=O)c1ccc(NC(C)=O)cc1` the value was 116 to 118 °C. Turning to `CNC(=O)C1CN=CNC1` (stereo not drawn), the melting point was in the range of 150 to 151 °C.

For the compound `CC(C)(C)NC(=O)N1CCn2cc(-c3ccccc3)c(C(N)=O)c2C1`, the melting point was 156 to 158 °C. For the compound `O=C(O)c1ccc2c(c1)Sc1ccccc1N=C2N1CCOCC1`, the melting point fell in the range of 267 to 269 °C.

Consider `CCOC1C=CC(=O)N1S(=O)(=O)c1ccccc1` (stereo not drawn), for which the melting point was 117 to 119 °C. For `O=C(NCCCc1ccccc1)NCc1ccccn1` the value was 89 to 90 °C; for `COc1ccc(C[C@H](NC(=O)OCc2ccccc2)[C@H]2CO2)cc1`, 86 to 87 °C; for `COc1ccc(C=Cc2ccc(CBr)cc2)cc1`, 147 to 148 °C. `CCOc1ccc2c(c1)CC2C#N` (stereo not drawn) displayed a melting point of 50 to 52 °C.

For the compound `COC(=O)c1c(C(F)F)nc(C(F)(F)F)c(N=COCC2CO2)c1CC(C)C` (stereo not drawn), the melting point fell in the range of 41 to 43 °C.

As for `O=C(Nc1ccc(F)cc1)Nc1nc(Nc2ccc(Cl)cc2)sc1C(=O)c1ccc(Cl)cc1Cl`, the melting point was above 280 °C.

On to `O=C1CC(Nc2ccccc2)C(=O)N1c1ccccc1` (stereo not drawn), for which the melting point is 211 to 214 °C. Take `COc1ccc2c(c1OC)C(=O)c1c-2c(Cl)nc2ccc(Cl)cc12`: the melting point was in the range of 149 to 151 °C. For `CC12CCC(C(=Cc3ccc(C=O)cc3)C1=O)C2(C)C` (stereo not drawn), the melting point came to 116 °C. In turn, `O=Cc1cc(Oc2ccccc2)ccc1O` returned a melting point of 54 to 55 °C.

For `CC(C)c1ccc(-n2nc(C(F)(F)F)cc2-c2ccc(S(C)(=O)=O)cc2)cc1`, the melting point is 144 to 146 °C.

In turn, `Cc1c(Br)c(C(F)(F)F)nn1C(C)C(=O)N(C)C` (stereo not drawn) had a melting point of 86 to 88 °C. For `COc1ccc(C2CCN(c3c(C)c(C)c4c(c3C)C(O)(c3ccc(C)cc3)C(C)(C)O4)CC2)cc1OC` (stereo not drawn) the value was 133 to 135 °C.

As for `COc1ccc2c(c1OC)CCC2c1c[nH]cn1` (stereo not drawn), the melting point lay in the range of 156 to 158 °C. Consider `O=S(=O)(O)c1ccc(NCc2ccccc2F)cc1`, for which the melting point was above 270 °C. For `Cn1cc(-c2cccc(N3Cc4cc(C(C)(C)C)ccc4C3=O)c2CO)cc(Nc2ccncn2)c1=O` the value was 216 to 218 °C; for `O=C1Nc2cc(F)ccc2OC1CCO` (stereo not drawn), 126 to 130 °C. For `COc1ccc(Cn2cnc3c(Cl)nc([N+](=O)[O-])nc32)cc1` the value was 181 to 182 °C; for `O=C(O)c1cnoc1-c1ccc(Cl)cc1Cl`, 122 to 123 °C; for `CCOc1ccc2c(c1)nc1n2CC(c2ccccn2)S1=O` (stereo not drawn), 145 to 147 °C. For `COc1ccc(-c2cc3ccccc3n2C(C)=O)cc1` the value was 68 to 71 °C; for `CCOP(=O)(Cc1ccc(NC(=O)CCc2sc(N)nc2-c2ccc(Cl)cc2)cc1)OCC`, 177 to 178 °C; for `COc1cc(N)ccc1C(O)c1cc(C)ccn1` (stereo not drawn), 114 to 117 °C. `COc1cc([N+](=O)[O-])c(N)cc1C(N)=O`: the melting point fell in the range of 250 to 257 °C. For `CCOC(=O)/C(=N\OCC1CCCCC1)c1csc(N)n1` the value was 107 to 108 °C. For `COC(=O)CCCN1CCC(CNC(=O)[C@@H]2CCCN2S(=O)(=O)c2ccc(Cl)c(COc3cccc4c(-n5ccnc5)cc(C)nc34)c2Cl)CC1` the value was 98 °C; for `C=CCCN1C(=O)C2C3CCC(O3)C2C1=O` (stereo not drawn), 64 to 65 °C; for `Cc1cc(C)c2cccc(OCc3c(Cl)ccc(S(=O)(=O)N4CCC[C@H]4C(=O)NCCNC(=O)COc4ccc(C=NN)cc4)c3Cl)c2n1`, 156 to 160 °C. For `COc1ccc2c(c1)[nH]c1c(C)nc3c(c12)C(=O)CC(C)(C)C3` the value was 250 to 252 °C; for `CC(C)c1ccc(C(=O)C2=C(O)C(=O)N(c3cccn(C)c3=O)C2c2ccc(OC(F)(F)F)cc2)cc1` (stereo not drawn), 207 °C; for `c1ccc2c(C3CCC4(CC3)OCCO4)c[nH]c2c1`, 163 to 165 °C. For `Clc1ccc2c(c1)NC(c1ccncc1)c1cc(Cl)ccc1O2` (stereo not drawn), the melting point is 202 to 205 °C. For `CCOc1nc2ccc(Cl)cc2c(-c2ccccc2)c1NC(=O)Nc1ccc(F)cc1F` the value was 238 to 239 °C; for `C=Cc1ccc(OS(C)(=O)=O)cc1`, 57 to 58 °C.

Consider `COc1cccc([C@H]2O[C@H](CC(=O)Nc3cccc(CCCCC(=O)O)c3)C(=O)N(CC(C)(C)CO)c3ccc(Cl)cc32)c1OC`, for which the melting point was 117 to 119 °C. For `CCCn1c(=O)c2c(nc(C=O)n2C)n(CCC)c1=O` the value was 130 °C. For `Cc1cc(C#Cc2cn(-c3ccc(F)cc3)c(C)n2)ccn1` the value was 151 °C. For `CC(=O)OC12Oc3c(C(C)(C)C)cc(C(C)(C)C)cc3C1(OC(C)=O)C(=O)c1ccccc12` (stereo not drawn) the value was 242 to 247 °C; for `OCCCCCCCCCCCCN1CCC(CNC[C@H](O)COc2cccc3[nH]c4ccccc4c23)CC1`, 110 °C; for `COc1ccc(C=CS(=O)(=O)Cl)cc1`, 65 to 67 °C. In turn, `CC(=O)Nc1nc(CCc2ccc(NC(NC(=O)OC(C)(C)C)NC(=O)OC(C)(C)C)cc2)cs1` yielded a melting point of 276 °C.

Compound `CC(C)(C)CC(C)(C)Nc1nc(Cl)nc(N2CC3CCC(CC3)C2)n1` showed a melting point of 159 to 162 °C. For the compound `NC(=O)c1cnn(-c2ccc(Cl)nn2)c1N`, the melting point was 314 to 317 °C. With `Cc1ccc(C(=O)OC2CCN(Cc3ccccc3)CC2)cc1`, the melting point is 73 to 74 °C.

Take `Cc1cnc(C)n1CC(O)c1ccc(-c2ccc(N3C[C@H](Cn4ccnn4)OC3=O)cc2F)cn1` (stereo partly drawn): the melting point fell in the range of 195 to 200 °C.

The record behind these values is a melting point compilation (Tetko et al.; mined from patent text by program, amines drawn as free bases though some values may be those of a salt).
